Experimental data from ChEMBL document CHEMBL1129770 (Bioorg Med Chem Lett, 1996).
Starred links: 1 amine or outer side, 2 acyl side, 3 side chain; linkers in the order of their positions; H or OH if unused. Residues, ends and D or L forms follow the SMILES beside them. Suc = O=C(CCC(=O)[*:2])[*:1]

How the values were obtained:
[1] = molecular target: T1, Endothelin receptor type B (Sus scrofa, UniProt P35463); test: Ability to inhibit [125I]ET-3 binding to the Endothelin B receptor from porcine lung membranes was evaluated; assay type: tissue-based
T1 sequence (P35463 whole entry): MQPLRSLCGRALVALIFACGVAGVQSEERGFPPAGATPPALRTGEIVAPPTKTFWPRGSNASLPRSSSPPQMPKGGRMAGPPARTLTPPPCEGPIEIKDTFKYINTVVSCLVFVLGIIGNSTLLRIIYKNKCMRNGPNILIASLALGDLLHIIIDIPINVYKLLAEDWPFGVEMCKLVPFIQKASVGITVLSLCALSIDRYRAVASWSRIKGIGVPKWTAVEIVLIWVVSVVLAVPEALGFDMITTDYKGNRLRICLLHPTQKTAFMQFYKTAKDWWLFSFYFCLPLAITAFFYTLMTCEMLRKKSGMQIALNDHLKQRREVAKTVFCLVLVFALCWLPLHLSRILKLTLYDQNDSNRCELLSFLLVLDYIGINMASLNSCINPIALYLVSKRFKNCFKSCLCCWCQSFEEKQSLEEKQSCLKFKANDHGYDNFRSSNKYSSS

Endothelin-1 receptor = molecular target: T2, Endothelin-1 receptor (Sus scrofa, UniProt Q29010); test: Ability to inhibit [125I]ET1 binding to the Endothelin A receptor from porcine lung membranes was evaluated; assay type: tissue-based
T2 sequence (Q29010 whole entry): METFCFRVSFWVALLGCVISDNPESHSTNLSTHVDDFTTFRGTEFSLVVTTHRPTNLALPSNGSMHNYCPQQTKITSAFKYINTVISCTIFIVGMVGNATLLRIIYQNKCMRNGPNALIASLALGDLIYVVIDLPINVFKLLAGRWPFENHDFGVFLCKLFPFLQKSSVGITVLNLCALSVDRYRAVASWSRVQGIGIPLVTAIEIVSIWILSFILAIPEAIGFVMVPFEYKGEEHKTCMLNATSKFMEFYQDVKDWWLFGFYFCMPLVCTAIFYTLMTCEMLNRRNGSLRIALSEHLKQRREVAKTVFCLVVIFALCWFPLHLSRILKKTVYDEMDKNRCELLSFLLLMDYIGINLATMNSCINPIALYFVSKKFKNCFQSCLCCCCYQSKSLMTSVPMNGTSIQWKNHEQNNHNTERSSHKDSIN

Bos taurus = species on record: Bos taurus; test: Ability to inhibit 3H substance P binding to bovine retina was evaluated; assay type: functional

Row | SMILES | Ki [1] [nM] | Ki (Endothelin-1 receptor) [nM] | IC50 (Bos taurus) [nM]
1 | CC[C@H](C)[C@H](NC(=O)[C@H](CC(=O)O)NC(=O)[C@H](CC(C)C)NC(=O)[C@H](Cc1cnc[nH]1)NC(=O)[C@H](C)NC(=O)[C@H](Cc1ccccc1)NC(=O)[C@H](Cc1ccc(O)cc1)NC(=O)[C@@H](NC(=O)[C@H](C)NC(=O)[C@H](CCC(=O)O)NC(=O)CCC(=O)O)C(C)C)C(=O)NCC(=O)N[C@@H](Cc1c[nH]c2ccccc12)C(=O)O (Suc-EAVYFAHLDIGW-OH) | 5200 | > 10000 | 
2 | O=C(N[C@@H](Cc1c[nH]c2ccccc12)C(=O)O)C1CC1c1ccccc1 (stereo not given in full) | 16 |  | 
3 | CC[C@H](C)[C@H](NC(=O)CNC(=O)[C@H](CC(=O)O)NC(=O)[C@H](CC(C)C)NC(=O)[C@H](Cc1cnc[nH]1)NC(=O)[C@H](C)NC(=O)[C@H](Cc1ccccc1)NC(=O)[C@H](Cc1ccc(O)cc1)NC(=O)[C@@H](NC(=O)[C@H](C)NC(=O)[C@H](CCC(=O)O)NC(=O)CCC(=O)O)C(C)C)C(=O)N[C@@H](Cc1c[nH]c2ccccc12)C(=O)O (Suc-EAVYFAHLDGIW-OH) | 180 | > 10000 | 
4 | CC[C@H](C)[C@H](NC(=O)[C@H](CC(=O)O)NC(=O)[C@H](CC(C)C)NC(=O)[C@H](Cc1c[nH]cn1)NC(=O)[C@H](C)NC(=O)CNC(=O)[C@H](Cc1ccc(O)cc1)NC(=O)[C@@H](NC(=O)[C@H](C)NC(=O)[C@H](CCC(=O)O)NC(=O)CCC(=O)O)C(C)C)C(=O)N[C@H](C(=O)N[C@@H](Cc1c[nH]c2ccccc12)C(=O)O)[C@@H](C)CC (Suc-EAVYGAHLDIIW-OH) | 260 | > 10000 | 
5 | CC[C@H](C)[C@H](NC(=O)[C@H](CC(=O)O)NC(=O)[C@H](CC(C)C)NC(=O)[C@H](Cc1cnc[nH]1)NC(=O)[C@H](C)NC(=O)[C@H](Cc1ccccc1)NC(=O)[C@H](Cc1ccc(O)cc1)NC(=O)[C@@H](NC(=O)[C@H](C)NC(=O)[C@H](CCC(=O)O)NC(=O)CCC(=O)O)C(C)C)C(=O)N[C@H](C(=O)NCC(=O)O)[C@@H](C)CC (Suc-EAVYFAHLDIIG-OH) | > 10000 | > 10000 | 
6 | Cc1cc(C)cc(C(=O)N(C)[C@H](Cc2ccc(-c3ccccc3)cc2)C(=O)N[C@@H](Cc2c[nH]c3ccccc23)C(=O)O)c1 |  |  | > 10000
7 | CC[C@H](C)[C@H](NC(=O)[C@H](CC(=O)O)NC(=O)[C@H](CC(C)C)NC(=O)[C@H](Cc1cnc[nH]1)NC(=O)[C@H](C)NC(=O)[C@H](Cc1ccccc1)NC(=O)CNC(=O)[C@@H](NC(=O)[C@H](C)NC(=O)[C@H](CCC(=O)O)NC(=O)CCC(=O)O)C(C)C)C(=O)N[C@H](C(=O)N[C@@H](Cc1c[nH]c2ccccc12)C(=O)O)[C@@H](C)CC (Suc-EAVGFAHLDIIW-OH) | 11 | 5000 | 
8 | Cc1cc(C)cc(C(=O)N(C)[C@H](Cc2ccccc2)C(=O)N[C@@H](Cc2c[nH]c3ccccc23)C(=O)O)c1 | 36 | 11000 | 2000
9 | CC[C@H](C)[C@H](NC(=O)[C@H](CC(=O)O)NC(=O)[C@H](CC(C)C)NC(=O)[C@H](Cc1cnc[nH]1)NC(=O)[C@@H]1CSSC[C@H](N)C(=O)N[C@@H](CO)C(=O)N[C@H]2CSSC[C@H](NC(=O)[C@H](CCC(=O)O)NC(=O)[C@H](CCCCN)NC(=O)[C@H](CC(=O)O)NC(=O)[C@H](CCSC)NC(=O)[C@H](CC(C)C)NC(=O)[C@H](CO)NC(=O)[C@H](CO)NC2=O)C(=O)N[C@@H](C(C)C)C(=O)N[C@@H](Cc2ccc(O)cc2)C(=O)N[C@@H](Cc2ccccc2)C(=O)N1)C(=O)N[C@H](C(=O)N[C@@H](Cc1c[nH]c2ccccc12)C(=O)O)[C@@H](C)CC [ENDOTHELIN] |  | 0.04 | 

Continued, values first:

Row | Ki [1] [nM] | Ki (Endothelin-1 receptor) [nM] | IC50 (Bos taurus) [nM] | SMILES
10 | 5.9 | > 10000 |  | CC[C@H](C)[C@H](NC(=O)[C@H](CC(=O)O)NC(=O)CNC(=O)[C@H](Cc1c[nH]cn1)NC(=O)[C@H](C)NC(=O)[C@H](Cc1ccccc1)NC(=O)[C@H](Cc1ccc(O)cc1)NC(=O)[C@@H](NC(=O)[C@H](C)NC(=O)[C@H](CCC(=O)O)NC(=O)CCC(=O)O)C(C)C)C(=O)N[C@H](C(=O)N[C@@H](Cc1c[nH]c2ccccc12)C(=O)O)[C@@H](C)CC (Suc-EAVYFAHGDIIW-OH)
11 | 0.91 | 1300 |  | CC[C@H](C)[C@H](NC(=O)[C@H](CC(=O)O)NC(=O)[C@H](CC(C)C)NC(=O)[C@H](Cc1c[nH]cn1)NC(=O)[C@H](C)NC(=O)[C@H](Cc1ccccc1)NC(=O)[C@H](Cc1ccc(O)cc1)NC(=O)CNC(=O)[C@H](C)NC(=O)[C@H](CCC(=O)O)NC(=O)CCC(=O)O)C(=O)N[C@H](C(=O)N[C@@H](Cc1c[nH]c2ccccc12)C(=O)O)[C@@H](C)CC (Suc-EAGYFAHLDIIW-OH)
12 | 0.077 | 620 |  | CC[C@H](C)[C@H](NC(=O)[C@H](CC(=O)O)NC(=O)[C@H](CC(C)C)NC(=O)[C@H](Cc1c[nH]cn1)NC(=O)[C@H](C)NC(=O)[C@H](Cc1ccccc1)NC(=O)[C@H](Cc1ccc(O)cc1)NC(=O)[C@@H](NC(=O)[C@H](C)NC(=O)[C@H](CCC(=O)O)NC(=O)CCC(=O)O)C(C)C)C(=O)N[C@H](C(=O)N[C@@H](Cc1c[nH]c2ccccc12)C(=O)O)[C@@H](C)CC (Suc-EAVYFAHLDIIW-OH)
13 | 5 |  | 800 | Cc1cc(C)cc(C(=O)N(C)[C@H](Cc2ccccc2)C(=O)NCCc2c[nH]c3ccccc23)c1
14 | 5.3 | 2000 |  | CC[C@H](C)[C@H](NC(=O)[C@H](CC(=O)O)NC(=O)[C@H](CC(C)C)NC(=O)[C@H](Cc1cnc[nH]1)NC(=O)CNC(=O)[C@H](Cc1ccccc1)NC(=O)[C@H](Cc1ccc(O)cc1)NC(=O)[C@@H](NC(=O)[C@H](C)NC(=O)[C@H](CCC(=O)O)NC(=O)CCC(=O)O)C(C)C)C(=O)N[C@H](C(=O)N[C@@H](Cc1c[nH]c2ccccc12)C(=O)O)[C@@H](C)CC (Suc-EAVYFGHLDIIW-OH)
15 | 0.25 | 96 |  | CC[C@H](C)[C@H](NC(=O)CNC(=O)[C@H](CC(C)C)NC(=O)[C@H](Cc1cnc[nH]1)NC(=O)[C@H](C)NC(=O)[C@H](Cc1ccccc1)NC(=O)[C@H](Cc1ccc(O)cc1)NC(=O)[C@@H](NC(=O)[C@H](C)NC(=O)[C@H](CCC(=O)O)NC(=O)CCC(=O)O)C(C)C)C(=O)N[C@H](C(=O)N[C@@H](Cc1c[nH]c2ccccc12)C(=O)O)[C@@H](C)CC (Suc-EAVYFAHLGIIW-OH)
16 | 1 | 250 |  | CC[C@H](C)[C@H](NC(=O)[C@H](CC(=O)O)NC(=O)[C@H](CC(C)C)NC(=O)CNC(=O)[C@H](C)NC(=O)[C@H](Cc1ccccc1)NC(=O)[C@H](Cc1ccc(O)cc1)NC(=O)[C@@H](NC(=O)[C@H](C)NC(=O)[C@H](CCC(=O)O)NC(=O)CCC(=O)O)C(C)C)C(=O)N[C@H](C(=O)N[C@@H](Cc1c[nH]c2ccccc12)C(=O)O)[C@@H](C)CC (Suc-EAVYFAGLDIIW-OH)
